Source: ChEMBL document CHEMBL1909294, “Translating clinical findings into knowledge in drug safety evaluation--drug induced liver injury prediction system (DILIps)” (PLoS Comput Biol, 2011)

Tests used:
[1] = system: Hepatotoxicity;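 for HepSE cholecystitis: Cholecystitis-related hepatic side effect score drawn from the DILIps (drug-induced liver injury prediction) training data set; call rule not given here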;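 for HepSE cirrhosis: cirrhosis hepatic side effect score taken from the DILIps (drug-induced liver injury prediction) training set; call rule not given here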; for HepSE hepatic failure: call rule not given here;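 for HepSE hepatitis: Hepatitis-related hepatic side effect score taken from the training data of DILIps, a prediction system for drug-induced liver injury; call rule not given here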;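 for HepSE hepatomegaly: hepatic side effect score for hepatomegaly, taken from the training set of the DILIps drug-induced liver injury prediction system; call rule not given here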; for HepSE liver disease: call rule not given here;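 for HepSE liver fatty: hepatic side effect score for fatty liver, taken from the DILIps training set for predicting drug-induced liver injury; call rule not given here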
[2] = system: Hepatotoxicity; remark: listed apart in the source;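 for HepSE cholecystitis: Cholecystitis-related hepatic side effect score drawn from the DILIps (drug-induced liver injury prediction) training data set; call rule not given here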;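 for HepSE cirrhosis: cirrhosis hepatic side effect score taken from the DILIps (drug-induced liver injury prediction) training set; call rule not given here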; for HepSE hepatic failure: call rule not given here;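 for HepSE hepatitis: Hepatitis-related hepatic side effect score taken from the training data of DILIps, a prediction system for drug-induced liver injury; call rule not given here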;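 for HepSE hepatomegaly: hepatic side effect score for hepatomegaly, taken from the training set of the DILIps drug-induced liver injury prediction system; call rule not given here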; for HepSE liver disease: call rule not given here;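 for HepSE liver fatty: hepatic side effect score for fatty liver, taken from the DILIps training set for predicting drug-induced liver injury; call rule not given here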
[3] = system: Hepatotoxicity; remark: listed apart in the source;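 for HepSE cholecystitis: Cholecystitis-related hepatic side effect score drawn from the DILIps (drug-induced liver injury prediction) training data set; call rule not given here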;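 for HepSE cirrhosis: cirrhosis hepatic side effect score taken from the DILIps (drug-induced liver injury prediction) training set; call rule not given here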; for HepSE hepatic failure: call rule not given here;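 for HepSE hepatitis: Hepatitis-related hepatic side effect score taken from the training data of DILIps, a prediction system for drug-induced liver injury; call rule not given here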;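 for HepSE hepatomegaly: hepatic side effect score for hepatomegaly, taken from the training set of the DILIps drug-induced liver injury prediction system; call rule not given here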; for HepSE liver disease: call rule not given here;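 for HepSE liver fatty: hepatic side effect score for fatty liver, taken from the DILIps training set for predicting drug-induced liver injury; call rule not given here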
[4] = system: Hepatotoxicity; remark: listed apart in the source;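 for HepSE cholecystitis: Cholecystitis-related hepatic side effect score drawn from the DILIps (drug-induced liver injury prediction) training data set; call rule not given here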;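 for HepSE cirrhosis: cirrhosis hepatic side effect score taken from the DILIps (drug-induced liver injury prediction) training set; call rule not given here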; for HepSE hepatic failure: call rule not given here;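 for HepSE hepatitis: Hepatitis-related hepatic side effect score taken from the training data of DILIps, a prediction system for drug-induced liver injury; call rule not given here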;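 for HepSE hepatomegaly: hepatic side effect score for hepatomegaly, taken from the training set of the DILIps drug-induced liver injury prediction system; call rule not given here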; for HepSE liver disease: call rule not given here;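 for HepSE liver fatty: hepatic side effect score for fatty liver, taken from the DILIps training set for predicting drug-induced liver injury; call rule not given here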
[5] = system: Hepatotoxicity; remark: listed apart in the source; for HepSE hepatic failure: call rule not given here; for HepSE liver disease: call rule not given here
[6] = system: Hepatotoxicity; remark: listed apart in the source; for HepSE liver disease: call rule not given here
[7] = system: Hepatotoxicity; remark: listed apart in the source
[8] = system: Hepatotoxicity; remark: listed apart in the source
[9] = system: Hepatotoxicity; remark: listed apart in the source
[10] = system: Hepatotoxicity; remark: listed apart in the source
[11] = system: Hepatotoxicity; remark: listed apart in the source
[12] = system: Hepatotoxicity; remark: listed apart in the source
[13] = system: Hepatotoxicity; remark: listed apart in the source
[14] = system: Hepatotoxicity; remark: listed apart in the source

Structure (SMILES)	HepSE_liver fatty [1]	HepSE_hepatitis [2]	HepSE_hepatomegaly [3]	HepSE_hepatic necrosis [4]	HepSE_cholelithiasis [5]	HepSE_cirrhosis [6]	HepSE_cholecystitis [7]	HepSE_liver disease [8]	HepSE_hepatic failure [9]	HepSE_jaundice [10]	HepSE_liver function tests abnormal [11]	HepSE_bilirubinemia [12]	HepSE_Combined Scores [13]	HepSE_elevated liver function tests [14]	HepSE_liver function tests abnormal ([11]; Liver)	HepSE_elevated liver function tests ([14]; Liver)	further results
CC1(C)O[C@@H]2C[C@H]3[C@@H]4CCC5=CC(=O)C=C[C@]5(C)[C@H]4[C@@H](O)C[C@]3(C)[C@]2(C(=O)CO)O1 [DESONIDE]	0	0	0	0	0	0	0	0	0	0	0	0	0	0	–	–	–
C[C@@H]1C[C@H]2[C@@H]3CCC4=CC(=O)C=C[C@]4(C)[C@@]3(F)[C@@H](O)C[C@]2(C)[C@H]1C(=O)CO [DESOXIMETASONE]	0	0	0	0	0	0	0	0	0	0	0	0	0	0	–	–	–
CN(C)CC(c1ccc(O)cc1)C1(O)CCCCC1 (configuration not stated) [DESVENLAFAXINE]	0	0	0	0	0	0	0	0	0	0	0	0	0	0	–	–	–
C[C@@H]1C[C@H]2[C@@H]3CCC4=CC(=O)C=C[C@]4(C)[C@@]3(F)[C@@H](O)C[C@]2(C)[C@@]1(O)C(=O)CO [DEXAMETHASONE]	0	0	1	0	0	0	0	0	0	0	0	0	1	0	–	–	–
Cc1cccc([C@H](C)c2cnc[nH]2)c1C [DEXMEDETOMIDINE]	–	–	–	–	–	–	–	–	–	–	–	–	–	–	0	0	HepSE_liver fatty ([1]; Liver): 0; HepSE_hepatitis ([2]; Liver): 0; HepSE_hepatomegaly ([3]; Liver): 0; HepSE_hepatic necrosis ([4]; Liver): 0; HepSE_cholelithiasis ([5]; Liver): 0; HepSE_cirrhosis ([6]; Liver): 0; HepSE_cholecystitis ([7]; Liver): 0; HepSE_liver disease ([8]; Liver): 0; HepSE_hepatic failure ([9]; Liver): 0; HepSE_jaundice ([10]; Liver): 0; HepSE_bilirubinemia ([12]; Liver): 1; HepSE_Combined Scores ([13]; Liver): 1
C[C@@H](CN1CC(=O)NC(=O)C1)N1CC(=O)NC(=O)C1 [DEXRAZOXANE]	0	0	0	0	0	0	0	0	0	0	0	0	0	0	–	–	–
CC1=NS(=O)(=O)c2cc(Cl)ccc2N1 [DIAZOXIDE]	0	0	0	0	0	0	0	0	0	0	0	0	0	0	–	–	–
O=C(O)Cc1ccccc1Nc1c(Cl)cccc1Cl [DICLOFENAC]	–	–	–	–	–	–	–	–	–	–	–	–	–	–	0	0	HepSE_liver fatty ([1]; Liver): 0; HepSE_hepatitis ([2]; Liver): 1; HepSE_hepatomegaly ([3]; Liver): 0; HepSE_hepatic necrosis ([4]; Liver): 1; HepSE_cholelithiasis ([5]; Liver): 0; HepSE_cirrhosis ([6]; Liver): 1; HepSE_cholecystitis ([7]; Liver): 0; HepSE_liver disease ([8]; Liver): 0; HepSE_hepatic failure ([9]; Liver): 1; HepSE_jaundice ([10]; Liver): 1; HepSE_bilirubinemia ([12]; Liver): 0; HepSE_Combined Scores ([13]; Liver): 5
Cc1onc(-c2c(Cl)cccc2Cl)c1C(=O)N[C@@H]1C(=O)N2[C@@H]1SC(C)(C)[C@@H]2C(=O)O [DICLOXACILLIN]	0	1	0	0	0	0	0	0	0	0	1	0	2	0	–	–	–
CCN(CC)CCOC(=O)C1(C2CCCCC2)CCCCC1 [DICYCLOMINE]	0	0	0	0	0	0	0	0	0	0	–	0	0	–	0	0	–
O=c1[nH]cnc2c1ncn2[C@H]1CC[C@@H](CO)O1 [DIDANOSINE]	1	1	1	0	0	0	0	0	1	0	0	0	4	0	–	–	–
CCN(CC)C(C)C(=O)c1ccccc1 (configuration not stated) [DIETHYLPROPION]	0	0	0	0	0	0	0	0	0	0	0	0	0	0	–	–	–
O=C(O)c1cc(-c2ccc(F)cc2F)ccc1O [DIFLUNISAL]	–	–	–	–	–	–	–	–	–	–	–	–	–	–	0	0	HepSE_liver fatty ([1]; Liver): 0; HepSE_hepatitis ([2]; Liver): 1; HepSE_hepatomegaly ([3]; Liver): 0; HepSE_hepatic necrosis ([4]; Liver): 0; HepSE_cholelithiasis ([5]; Liver): 0; HepSE_cirrhosis ([6]; Liver): 0; HepSE_cholecystitis ([7]; Liver): 0; HepSE_liver disease ([8]; Liver): 0; HepSE_hepatic failure ([9]; Liver): 0; HepSE_jaundice ([10]; Liver): 1; HepSE_bilirubinemia ([12]; Liver): 0; HepSE_Combined Scores ([13]; Liver): 2
